Reference: US4652575A, “2-(ethylene-thio methyl furanyl)amino thiazole derivatives having acid secretion inhibiting activity” (Medosan Industrie Biochimiche Riunite S.p.A., priority 1984, dated 1987)
Read-outs that look alike come from different tables or passages of the source.

Tests used:
[1] = test system: gastric acid secretion; settings: experimental tests on animals and humans; prior art; cited from earlier work
[2] = target: T1, histamine H2 receptors (Cavia porcellus, UniProt P47747); settings: Daly M. J., Br. J. Pharmac., 72, 49, 1982; cited from earlier work
T1 construct: tests on insulated atrium auricolas of Guinea pig heart; from tissue; host or cells: isolated guinea pig heart atrium
T1 sequence (P47747 whole entry): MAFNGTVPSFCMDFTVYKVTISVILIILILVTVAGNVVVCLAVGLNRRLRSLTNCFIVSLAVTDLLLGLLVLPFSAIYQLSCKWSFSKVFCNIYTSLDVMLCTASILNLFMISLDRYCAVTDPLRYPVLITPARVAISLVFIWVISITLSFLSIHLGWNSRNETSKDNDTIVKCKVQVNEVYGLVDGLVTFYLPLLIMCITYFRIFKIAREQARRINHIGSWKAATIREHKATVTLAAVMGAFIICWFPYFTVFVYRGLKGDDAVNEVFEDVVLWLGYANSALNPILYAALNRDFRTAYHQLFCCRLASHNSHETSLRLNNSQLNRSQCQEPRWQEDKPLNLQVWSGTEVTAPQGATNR

[3] = test system: gastric secretion; experiment: Activity on gastric secretion "in vivo" (volume and total acidity of gastric juice after pylorus tieing, Shay); design: species or system male Wistar rats; settings: for ED50 / change in vivo at 20 mg/kg: Rattus norvegicus, po; for ED50: read-out: DE50 in rat calculated on total acidity (mEq/4 hours); for Total acidity gastric juice secretion / Volume gastric juice secretion / change in vivo at 20 mg/kg: 20 mg/kg oral; for ability to reduce the gastric acid secretion (in words): volume and total acidity of gastric juice
Description: (§1) The preparations were a solution of the substances in 2.5% citric acid for the "in vitro" test and 5% citric acid for the "in vivo" test respectively. Citric acid was diluted in normal physiologic saline at neutral pH.
The ability of the compounds according to the present invention to inhibit the gastric secretion was studied "in vivo" both by evaluating the volume reduction of gastric juice, and by measuring the total acidity of same after administration of the substances under test according to the Takeda method (see the aforementioned literature).
To this end, tests have been made on male Wistar rats of an average weight of 200 g. The animals, 10 for each substance, were placed into individual cages provided with ground grating in order to avoid coprophagy, without food but with free access to water for 24 hours before test. […] Four hours later the animals were sacrificed and the gastric juice was collected, of which the volume expressed in ml and the total acidity expressed in mEq was measured. The gastric juice ([…] ) was titrated with 0.1N NaOH to pH 7 to determine the acid concentration. The total acidity was then calculated as the product of the total volume of gastric juice by the acid concentration.

[4] = target: T1, histamine H2 receptors; experiment: Antagonistic activity to the histamine H2 receptors "in vitro" on insulated atrium auricolas of Guinea pig heart; settings: for inhibition at 10 µM / inhibition at 1 µM / inhibition at 0.1 µM / inhibition at 0.01 µM: guinea pig, 0.5 h, read-out: Antagonizing activity to histamine H2 receptors; for inhibition at 10 µM: compound 1·10^-5 M/L; for inhibition at 1 µM: compound 1·10^-6 M/L; for inhibition at 0.1 µM: compound 1·10^-7 M/L; for inhibition at 0.01 µM: compound 1·10^-8 M/L; for antagonistic action to the histamine H2 receptors (in words): in vitro
Description: as §1
This activity was evaluated "in vitro" by carrying out tests on insulated atrium auricolas of Guinea pig heart. […] Metering was carried out by placing the preparation into a vessel containing a Ringer-Locke solution wherein pure oxygen was bubbling, at a temperature of 37° C. A response of the organ "in vitro" was first established at cumulative histamine doses of 2.5.10^-7, 5.10^-7, 10^-6, 5.10^-6, 10^-5 M/L. After obtaining two constant lines with histamine at a time interval of one hour from one another, the substances under test were added to the bath and after a 30 minutes contact with the preparation, a new histamine response line in the presence of the substance under test was drawn. The activity was tested at various concentrations of the new compounds (10^-5, 10^-6, 10^-7 and in one case 10^-8 M/L).

[5] = in vivo; settings: po; for LD50 at 360 h: mouse; for LD50: rat
Source text: The animals were kept under observation by checking mortality and possible pain signs for 15 days from start of test.

[6] = 6 hours before pilorus tieing, read-out: Total acidity gastric juice secretion, Variation %
[7] = 6 hours before pilorus tieing, read-out: Volume gastric juice secretion, Variation %
[8] = 12 hours before pilorus tieing, read-out: Total acidity gastric juice secretion, Variation %
[9] = 12 hours before pilorus tieing, read-out: Volume gastric juice secretion, Variation %
[10] = 24 hours before pilorus tieing, read-out: Total acidity gastric juice secretion, Variation %
[11] = 24 hours before pilorus tieing, read-out: Volume gastric juice secretion, Variation %
[12] = 36 hours before pilorus tieing, read-out: Total acidity gastric juice secretion, Variation %
[13] = 36 hours before pilorus tieing, read-out: Volume gastric juice secretion, Variation %
[14] = per os, 1 hour before pilorus tieing

CNC(=S)NCCCCc1cnc[nH]1 [Burimamide]
reduction of gastric acid secretion (in words) [1]: effective to reduce the gastric acid secretion

CN/C(=N/CCSCc1nc[nH]c1C)NC#N [Cimetidine, reference compound]
antagonism of histamine induced increase of contraction frequency of the insulated atrium (in words) [2]: competitively antagonize
reduction of gastric acid secretion (in words) [1]: effective to reduce the gastric acid secretion
ED50 [3]: 30 mg/kg
inhibition at 10 µM ([4]; histamine 1·10^-5 M/L): 28%
inhibition at 10 µM ([4]; histamine 1·10^-6 M/L): 100%
inhibition at 10 µM ([4]; histamine 2,5·10^-7 M/L): 100%
inhibition at 10 µM ([4]; histamine 5·10^-6 M/L): 50%
inhibition at 10 µM ([4]; histamine 5·10^-7 M/L): 100%
inhibition at 1 µM ([4]; histamine 1·10^-5 M/L): 10%
inhibition at 1 µM ([4]; histamine 1·10^-6 M/L): 90%
inhibition at 1 µM ([4]; histamine 2,5·10^-7 M/L): 100%
inhibition at 1 µM ([4]; histamine 5·10^-6 M/L): 40%
inhibition at 1 µM ([4]; histamine 5·10^-7 M/L): 90%
inhibition at 0.1 µM ([4]; histamine 1·10^-5 M/L): 0%
inhibition at 0.1 µM ([4]; histamine 1·10^-6 M/L): 45%
inhibition at 0.1 µM ([4]; histamine 2,5·10^-7 M/L): 80%
inhibition at 0.1 µM ([4]; histamine 5·10^-6 M/L): 22%
inhibition at 0.1 µM ([4]; histamine 5·10^-7 M/L): 80%

CN(C)Cc1ccc(CSCCNc2nc(-c3ccc4ccccc4c3)cs2)o1 [Example No. 6, 2-(2-(((5-(dimethylamino)methyl-2-furanyl)methyl)thio)ethyl)-amino-4-(2-naphthyl)-thiazole]
LD50 at 360 h [5]: 2100 mg/kg
LD50 [5]: 2800 mg/kg
Total acidity gastric juice secretion ([3]; 6 hours before pilorus tieing): 0,05 mEq/4 hours
Volume gastric juice secretion ([3]; 6 hours before pilorus tieing): 3,0 ml/4 hours
Total acidity gastric juice secretion ([3]; 12 hours before pilorus tieing): 0,04 mEq/4 hours
Volume gastric juice secretion ([3]; 12 hours before pilorus tieing): 2,9 ml/4 hours
Total acidity gastric juice secretion ([3]; 24 hours before pilorus tieing): 0,12 mEq/4 hours
Volume gastric juice secretion ([3]; 24 hours before pilorus tieing): 4,5 ml/4 hours
Total acidity gastric juice secretion ([3]; 36 hours before pilorus tieing): 0,12 mEq/4 hours
Volume gastric juice secretion ([3]; 36 hours before pilorus tieing): 5,0 ml/4 hours
change in vivo at 20 mg/kg [3, 6]: -70%
change in vivo at 20 mg/kg [3, 7]: -43%
change in vivo at 20 mg/kg [3, 8]: -73%
change in vivo at 20 mg/kg [3, 9]: -37%
change in vivo at 20 mg/kg [3, 10]: -29%
change in vivo at 20 mg/kg [3, 11]: -20%
change in vivo at 20 mg/kg [3, 12]: -25%
change in vivo at 20 mg/kg [3, 13]: -11%
ED50 [3, 14]: 1.8 mg/kg
ability to reduce the gastric acid secretion (in words) [3]: interesting ability
inhibition at 10 µM ([4]; histamine 1·10^-5 M/L): 90%
inhibition at 10 µM ([4]; histamine 1·10^-6 M/L): 100%
inhibition at 10 µM ([4]; histamine 2,5·10^-7 M/L): 100%
inhibition at 10 µM ([4]; histamine 5·10^-6 M/L): 90%
inhibition at 10 µM ([4]; histamine 5·10^-7 M/L): 100%
inhibition at 1 µM ([4]; histamine 1·10^-5 M/L): 40%
inhibition at 1 µM ([4]; histamine 1·10^-6 M/L): 90%
inhibition at 1 µM ([4]; histamine 2,5·10^-7 M/L): 100%
inhibition at 1 µM ([4]; histamine 5·10^-6 M/L): 70%
inhibition at 1 µM ([4]; histamine 5·10^-7 M/L): 100%
inhibition at 0.1 µM ([4]; histamine 1·10^-5 M/L): 35%
inhibition at 0.1 µM ([4]; histamine 1·10^-6 M/L): 70%
inhibition at 0.1 µM ([4]; histamine 2,5·10^-7 M/L): 95%
inhibition at 0.1 µM ([4]; histamine 5·10^-6 M/L): 50%
inhibition at 0.1 µM ([4]; histamine 5·10^-7 M/L): 95%
inhibition at 0.01 µM ([4]; histamine 1·10^-5 M/L): 15%
inhibition at 0.01 µM ([4]; histamine 1·10^-6 M/L): 70%
inhibition at 0.01 µM ([4]; histamine 2,5·10^-7 M/L): 95%
inhibition at 0.01 µM ([4]; histamine 5·10^-6 M/L): 50%
inhibition at 0.01 µM ([4]; histamine 5·10^-7 M/L): 85%
antagonistic action to the histamine H2 receptors (in words) [4]: interesting ability

CN(C)Cc1ccc(CSCCNc2nc(-c3ccc(Oc4ccccc4)cc3)cs2)o1 [Example No. 13, 2-(2-(((5-(dimethylamino)methyl-2-furanyl)methyl)thio)ethyl)amino-4-(4-phenoxy)phenyl-thiazole]
LD50 at 360 h [5]: 3000 mg/kg
LD50 [5]: > 3000 mg/kg
Total acidity gastric juice secretion ([3]; 6 hours before pilorus tieing): 0,09 mEq/4 hours
Volume gastric juice secretion ([3]; 6 hours before pilorus tieing): 3,9 ml/4 hours
Total acidity gastric juice secretion ([3]; 12 hours before pilorus tieing): 0,09 mEq/4 hours
Volume gastric juice secretion ([3]; 12 hours before pilorus tieing): 3,9 ml/4 hours
Total acidity gastric juice secretion ([3]; 24 hours before pilorus tieing): 0,13 mEq/4 hours
Volume gastric juice secretion ([3]; 24 hours before pilorus tieing): 4,7 ml/4 hours
Total acidity gastric juice secretion ([3]; 36 hours before pilorus tieing): 0,15 mEq/4 hours
Volume gastric juice secretion ([3]; 36 hours before pilorus tieing): 5,1 ml/4 hours
change in vivo at 20 mg/kg [3, 6]: -47%
change in vivo at 20 mg/kg [3, 7]: -26%
change in vivo at 20 mg/kg [3, 8]: -40%
change in vivo at 20 mg/kg [3, 9]: -23%
change in vivo at 20 mg/kg [3, 10]: -23%
change in vivo at 20 mg/kg [3, 11]: -16%
change in vivo at 20 mg/kg [3, 12]: -6%
change in vivo at 20 mg/kg [3, 13]: -9%
ED50 [3, 14]: 2.6 mg/kg
ability to reduce the gastric acid secretion (in words) [3]: interesting ability
inhibition at 10 µM ([4]; histamine 1·10^-5 M/L): 90%
inhibition at 10 µM ([4]; histamine 1·10^-6 M/L): 95%
inhibition at 10 µM ([4]; histamine 2,5·10^-7 M/L): 100%
inhibition at 10 µM ([4]; histamine 5·10^-6 M/L): 90%
inhibition at 10 µM ([4]; histamine 5·10^-7 M/L): 100%
inhibition at 1 µM ([4]; histamine 1·10^-5 M/L): 38%
inhibition at 1 µM ([4]; histamine 1·10^-6 M/L): 80%
inhibition at 1 µM ([4]; histamine 2,5·10^-7 M/L): 90%
inhibition at 1 µM ([4]; histamine 5·10^-6 M/L): 65%
inhibition at 1 µM ([4]; histamine 5·10^-7 M/L): 90%
inhibition at 0.1 µM ([4]; histamine 1·10^-5 M/L): 40%
inhibition at 0.1 µM ([4]; histamine 1·10^-6 M/L): 50%
inhibition at 0.1 µM ([4]; histamine 2,5·10^-7 M/L): 90%
inhibition at 0.1 µM ([4]; histamine 5·10^-6 M/L): 30%
inhibition at 0.1 µM ([4]; histamine 5·10^-7 M/L): 70%
antagonistic action to the histamine H2 receptors (in words) [4]: interesting ability

C/N=C(\S)NCCSCc1[nH]cnc1C [Metiamide]
reduction of gastric acid secretion (in words) [1]: effective to reduce the gastric acid secretion
